Consider 1 molecule from ChEMBL document CHEMBL4004851, “Room Temperature Neutron Crystallography of Drug Resistant HIV-1 Protease Uncovers Limitations of X-ray Structural Analysis at 100 K” (J Med Chem, 2017).

The test system of assay [1] is Human immunodeficiency virus type 1 protease (Human immunodeficiency virus 1), Q72874 [V32I,I47V,V82I].
Assay [2] has the same test system. The source holds these as a separate data set.
Assay [3] shares this test system. This is another data set of the same source.
Assay [4] has the same test system. This is another data set of the same source.
Assay [5] addresses T1, Human immunodeficiency virus type 1 protease (Human immunodeficiency virus 1, UniProt Q72874, I47V/V32I/V82I). The assay is described as follows: Binding affinity to HIV1 protease V32I/I47V/V82I triple mutant at pH 4.0 and 28 degC by ITC method. Background: Isothermal titration calorimetry measures the heat released or taken up as one component is titrated into another.
Assay [6] is described as follows: Binding affinity to wild type HIV1 protease at pH 5.0 and 20 degC by ITC method. Also on record: species or system Human immunodeficiency virus 1.
Assay [7] concerns Human immunodeficiency virus 1.
Description: Binding affinity to wild type HIV1 protease assessed as deltaH level at pH 5.0 and 20 degC by ITC method
For assay [8], the system named is Human immunodeficiency virus 1. This is another data set of the same source.
Description: Binding affinity to wild type HIV1 protease assessed as deltaG level at pH 5.0 and 20 degC by ITC method
The test system of assay [9] is Human immunodeficiency virus type 1 protease (Human immunodeficiency virus 1), Q72874 [V32I,I47V,V82I]. This is another data set of the same source.
Assay [10] shares this test system. The source holds these as a separate data set.
Assay [11] has the same test system. This is another data set of the same source.
Assay [12] has the same test system. This is another data set of the same source.
In assay [13] the test system is Human immunodeficiency virus 1. The source holds these as a separate data set.
Description: Binding affinity to wild type HIV1 protease assessed as deltaS level at pH 5.0 and 20 degC by ITC method
Assay [14] concerns the target T1, Human immunodeficiency virus type 1 protease. The assay can be described thus: Binding affinity to HIV1 protease V32I/I47V/V82I triple mutant at pH 5.8 and 28 degC by ITC method.
In assay [15] the test system is Human immunodeficiency virus 1. The assay can be described thus: Binding affinity to wild type HIV1 protease assessed as -TdeltaS level at pH 5.0 and 20 degC by ITC method.

Chain of Human immunodeficiency virus type 1 protease (Human immunodeficiency virus 1), Q72874 [V32I,I47V,V82I] (Q72874 entry or part of it V32I/I47V/V82I): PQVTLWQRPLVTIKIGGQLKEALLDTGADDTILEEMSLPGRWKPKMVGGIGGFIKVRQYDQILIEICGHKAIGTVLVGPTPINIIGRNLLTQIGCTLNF
T1 sequence (Q72874 entry or part of it I47V/V32I/V82I): as the sequence (Q72874 entry or part of it V32I/I47V/V82I) above

Broadly, the Ki is the dissociation constant of the complex between target and ligand, obtained from inhibition or displacement. `CC(C)CN(C[C@@H](O)[C@H](Cc1ccccc1)NC(=O)O[C@H]1CCOC1)S(=O)(=O)c1ccc(N)cc1` [AMPRENAVIR]: the deltaH in assay [1] is -6.8 kcal/mol; in [2], -6 kcal/mol; in [7] it was -7.3 kcal/mol. For the same molecule, the deltaG is -10.2 kcal/mol in assay [3], -12.6 kcal/mol in [8] and -11 kcal/mol in [10]. In addition, the figures for the deltaS in assay [4], in assay [11] and in assay [13] were 14 cal/mol.K, 14.3 cal/mol.K and 18.1 cal/mol.K, respectively. Moreover, the figures for the inhibition constant (Ki) in assay [5], in [6] and in assay [14] were 10 nM, 0.39 nM and 35 nM, respectively. Besides, the -TdeltaS in assay [9] is -4.2 kcal/mol; in [12], -4.3 kcal/mol; in assay [15], -5.3 kcal/mol.
